Results: patent publication US10758609B2, “Cross-reactive T-cell epitopes of HIV, SIV, and FIV for vaccines in humans and cats” (priority 2015, dated 2020)
Entries after “also recorded” stand apart in the source; their conditions may differ.

Tests used:
[1] = system: feline CD3^+CD4^+ T cells; experiment: CFSE-based feline CD3+CD4+ T-cell proliferation; parameters: species or system cat; conditions: FIV-vaccinated cats; for CD4, frequency of responders: FIV epitope peptide; for CDC4^+ T (T-cell proliferation), frequency of responders: FIV peptides
Method in brief: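 CFSE-labelled PBMCs (2.5×10^5) from cats stimulated 5 days at 37 °C with peptides or overlapping peptide pools at 4 μg/mL each. Proliferating CD3+CD4+ and CD3+CD8+ cells gated by flow. Media/control values subtracted; positive threshold ≥1 CFSE^low (≥0.5 CFSE^low in vaccine trial).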

FIVFC1 [2] = experiment: FIV enhancement and suppression (E/S) analysis of in vitro FIV infection of feline PBMC; format: cell-based, feline immunodeficiency virus; conditions: for Direct effect on in vitro FIV infection (enhancement/suppression): 7 μg/mL peptide or MAP, PBMC of uninfected SPF cats, versus virus control; for FIV Test E/S (enhancer/suppressor analysis): FIV peptides, in vitro FIV infection of uninfected cat PBMC
Protocol: FIV viral enhancement or suppression was determined using a 48-well modification of the method described for detecting FIV enhancing activity of IFNγ and FIV suppressive activity of IFNα [37]. […] MAP1c contained four branched chains of peptide Fp4-3. T-cell mitogen concanavalin A (ConA) at 4 μg/mL was used as an infection enhancing control. Six hours after the culturing with peptide, MAP, or ConA, varying dilutions of FIVFC1 were added to the wells. Seventy-two hours later the cells were re-cultured in fresh culture media with ConA-stimulated autologous PBMC (0.25-0.5×10^6) using the same amount of corresponding peptide, MAP, ConA or media. On Day 7, 10, and 13 of culture, 0.5 mL of culture fluid was collected and 0.5 mL of fresh media added to maintain a consistent volume. The harvested culture samples were analyzed for FIV titer using the previously described RT assay. The results are shown as the end-point dilution titer from two studies using PBMC from different SPF donors.
Statistical analysis. The statistically significant differences between the end-point dilution titers of the peptide or MAP culture samples and either the virus control samples or specific MAP culture samples were calculated using a paired Student t-test with a two-tailed distribution (SigmaPlot version 11.0). Statistical comparisons between pre and post-vaccination(s) were similarly performed. The comparison was considered statistically significant when p<0.05.

[3] = ELISA and FIV immunoblot for antibodies to vaccine peptides/MAPs; format: in vivo, cat; conditions: IWV/MAP-vaccinated cats, throughout the vaccination (pilot study)
Protocol: To avoid detection of vaccine antibodies to p24 and RT, post-challenge sera were evaluated for infection-induced FIV antibodies by ELISA using 200 ng/well of transmembrane peptide (TM, aa 694-705: […] (SEQ ID NO:68)) as previously described. The positive threshold for anti-TM antibodies was set at 0.2 O.D. The post-vaccination sera immediately before challenge were evaluated for NAb titer to FIVPet and FIVFC1 by NAb assay as previously described. The post-vaccination/pre-challenge sera were tested for antibodies to vaccine peptides by ELISA using each peptide as substrate and by FIV immunoblot with mini-blot modification as previously described. All ELISA thresholds were set at twice the average of the individual serum from 15-20 SPF cats.

FIVFC1 [4] = experiment: FIV enhancement and suppression (E/S) analysis of in vitro FIV infection of feline PBMC; format: cell-based, feline immunodeficiency virus; conditions: FIV-vaccinated cats; for E/S pMAP: viral enhancement or suppression: Palmitoyled Pam-MAP (pMAP) of the peptide, ** = MAP(Fp4-3/Fp14-1); for E/S: viral enhancement or suppression: peptide

| Sequence | CD4, frequency of responders [1] | CDC4^+ T (T-cell proliferation), frequency of responders [1] | Direct effect on in vitro FIV infection (enhancement/suppression) (FIVFC1 [2]) | FIV Test E/S (enhancer/suppressor analysis) (FIVFC1 [2]) | Peptide-specific serum antibodies (ELISA) [3] | E/S pMAP: viral enhancement or suppression (FIVFC1 [4]) | E/S tMAP: viral enhancement or suppression (FIVFC1 [4]; Tat-MAP (tMAP) of the peptide) | E/S: viral enhancement or suppression (FIVFC1 [4]) | Direct effect on in vitro FIV infection (enhancement/suppression) (FIVFC1 [2]; listed as Fp4-3 real) |
| --- | --- | --- | --- | --- | --- | --- | --- | --- | --- |
| AGLRQSLEQYQVVKQ [FSU4] | +++ (41%-54% (+++)) | +++ (40.1%-54% (+++)) |  |  |  |  |  |  |  |
| KFLYTAFAMQELR [FTM4-3] | ++ (26%-40% (++)) | ++ (25.1%-40% (++)) |  |  |  |  |  |  |  |
| KKKSGKWRMLIDFRV [FRT3-3] | ++ (26%-40% (++)) | ++ (25.1%-40% (++)) | significant enhancement; also recorded: enhanced in vitro FIV infection; also recorded: enhance/ | ↑ | No specific antibodies | ↓X | ↓+ | ↑ |  |
| LLLILCLPTLVDCIRN [FTM8(20)] | ++ (26%-40% (++)) | ++ (25.1%-40% (++)) |  |  |  |  |  |  |  |
| PTDMATLIMAAPGCA [Fp4-3] | ++++ (>54% (++++)) | ++++ (>54% (++++)) | significantly enhanced FIV infection | ↑ | No specific antibodies | ↑** |  | ↑ | enhancing |
| WRMLIDFRVLNKL [FRT3-4] | + (12.5%-25% (+)) | + (12.5%-25% (+)) | significantly suppressed FIV infection; also recorded: suppress | ↓ | No specific antibodies |  |  | ↓ |  |
